These results are taken from ChEMBL document CHEMBL4145608, “Dehydrodiconiferyl Alcohol Inhibits Osteoclast Differentiation and Ovariectomy-Induced Bone Loss through Acting as an Estrogen Receptor Agonist” (J Nat Prod, 2018).

Molecules are shown by their SMILES. Activity calls are given as the source filed them. No cut-off for these calls is given here.

Assay [1] has as its system RAW264.7. Kind of assay: Inhibition of NF-kappaB signaling pathway in mouse RAW264.7 cells assessed as reduction in RANKL-induced IKKbeta phosphorylation at 10 to 40 uM after 30 mins by Western blot method. It is filed as cell-based.
In assay [2] the test system is RAW264.7. Kind of assay: Inhibition of NF-kappaB/p38 MAPK signaling pathway in mouse RAW264.7 cells assessed as reduction in RANKL-induced NFATc1 protein expression level after 24 hrs by Western blot method. It is filed as cell-based. (Immunoblotting shows a protein as a band on a membrane.)
The test system of assay [3] is RAW264.7. The experiment in a line: Inhibition of NF-kappaB/p38 MAPK signaling pathway in mouse RAW264.7 cells assessed as reduction in RANKL-induced NFATc1 nuclear translocation after 24 hrs by Western blot method. Format: cell-based.
In assay [4] the test system is RAW264.7. Kind of assay: Inhibition of NF-kappaB signaling pathway in mouse RAW264.7 cells assessed as reduction in RANKL-induced Akt phosphorylation at 10 to 40 uM after 30 mins by Western blot method. It is filed as cell-based.
Assay [5] concerns the target MAP kinase p38 (Mus musculus) (UniProt P47811+O08911+Q9WUI1+Q9Z1B7). Kind of assay: Inhibition of p38 MAPK signaling pathway in mouse RAW264.7 cells assessed as reduction in RANKL-induced p38 phosphorylation at 10 to 40 uM after 30 mins by Western blot method. It is filed as cell-based.
Assay [6] concerns the target 5'-AMP-activated protein kinase catalytic subunit alpha-1 (Mus musculus) (UniProt Q5EG47). The experiment in a line: Activation of AMPKalpha1 in mouse RAW264.7 cells assessed as increase in AMPK phosphorylation at 10 to 40 uM after 24 hrs by Western blot method. Format: cell-based.
Assay [7] concerns RAW264.7. Kind of assay: Inhibition of RANKL-induced osteoclast differentiation in mouse RAW264.7 cells harboring AMPKalpha1 siRNA assessed as decrease in TRAP activity at 10 to 40 uM after 5 days by microscopy. It is filed as functional, cell-based.
For assay [8], the system named is RAW264.7. Kind of assay: Inhibition of RANKL-induced osteoclast differentiation in mouse RAW264.7 cells assessed as TRAP activity after 5 days in presence of PKA inhibitor H89. It is filed as functional, cell-based.
Assay [9] concerns RAW264.7. The experiment in a line: Inhibition of RANKL-induced osteoclast differentiation in mouse RAW264.7 cells assessed as TRAP activity after 5 days in presence of CAMKKbeta inhibitor STO609. Format: functional, cell-based.
Assay [10] has as its target Calcium/calmodulin-dependent protein kinase kinase 2 (Mus musculus) (UniProt Q8C078). The experiment in a line: Inhibition of RANKL-induced CAMKKbeta phosphorylation in mouse RAW264.7 cells at 10 to 40 uM after 24 hrs by Western blot analysis. Format: cell-based.
The subject of assay [11] is RAW264.7. The experiment in a line: Inhibition of RANKL-induced osteoclast differentiation in mouse RAW264.7 cells assessed as decrease in number of TRAP-positive multinucleated cells at 20 uM after 5 days in presence of ERalpha antagonist MPP by microscopy. It is filed as functional, cell-based.
Assay [12] relates to RAW264.7. Kind of assay: Inhibition of RANKL-induced osteoclast differentiation in mouse RAW264.7 cells assessed as decrease in c-Fos mRNA level at 20 uM after 24 hrs in presence of ERalpha antagonist MPP by qRT-PCR method. It is filed as functional, cell-based. On the technique in general: Real-time PCR tracks product formation cycle by cycle.
For assay [13], the system named is RAW264.7. Kind of assay: Inhibition of RANKL-induced osteoclast differentiation in mouse RAW264.7 cells assessed as decrease in c-Fos mRNA level at 20 uM after 24 hrs in presence of ERbeta antagonist PHTPP by qRT-PCR method. Format: functional, cell-based.
The subject of assay [14] is RAW264.7. Kind of assay: Inhibition of RANKL-induced osteoclast differentiation in mouse RAW264.7 cells assessed as decrease in TRAP mRNA level at 20 uM after 24 hrs in presence of ERbeta antagonist PHTPP by qRT-PCR method. Format: functional, cell-based.
Assay [15] relates to RAW264.7. The experiment in a line: Inhibition of RANKL-induced osteoclast differentiation in mouse RAW264.7 cells harboring ERalpha siRNA assessed as decrease in TRAP activity at 20 uM after 5 days by microscopy. It is filed as functional, cell-based.
Assay [16] concerns RAW264.7. Kind of assay: Inhibition of RANKL-induced osteoclast differentiation in mouse RAW264.7 cells harboring ERalpha siRNA assessed as decrease in TRAP mRNA level at 20 uM after 24 hrs by qRT-PCR method. It is filed as functional, cell-based.
Assay [17] has as its system RAW264.7. The experiment in a line: Inhibition of RANKL-induced osteoclast differentiation in mouse RAW264.7 cells harboring ERbeta siRNA assessed as decrease in number of TRAP-positive multinucleated cells at 20 uM after 5 days by microscopy. Format: functional, cell-based.
In assay [18] the test system is RAW264.7. The experiment in a line: Inhibition of RANKL-induced osteoclast differentiation in mouse RAW264.7 cells harboring ERbeta siRNA assessed as decrease in size of TRAP-positive multinucleated cells at 20 uM after 5 days by microscopy. It is filed as functional, cell-based.
A further assay deals with T1, Estrogen receptor (Homo sapiens, UniProt P03372).
T1 sequence (P03372 whole entry): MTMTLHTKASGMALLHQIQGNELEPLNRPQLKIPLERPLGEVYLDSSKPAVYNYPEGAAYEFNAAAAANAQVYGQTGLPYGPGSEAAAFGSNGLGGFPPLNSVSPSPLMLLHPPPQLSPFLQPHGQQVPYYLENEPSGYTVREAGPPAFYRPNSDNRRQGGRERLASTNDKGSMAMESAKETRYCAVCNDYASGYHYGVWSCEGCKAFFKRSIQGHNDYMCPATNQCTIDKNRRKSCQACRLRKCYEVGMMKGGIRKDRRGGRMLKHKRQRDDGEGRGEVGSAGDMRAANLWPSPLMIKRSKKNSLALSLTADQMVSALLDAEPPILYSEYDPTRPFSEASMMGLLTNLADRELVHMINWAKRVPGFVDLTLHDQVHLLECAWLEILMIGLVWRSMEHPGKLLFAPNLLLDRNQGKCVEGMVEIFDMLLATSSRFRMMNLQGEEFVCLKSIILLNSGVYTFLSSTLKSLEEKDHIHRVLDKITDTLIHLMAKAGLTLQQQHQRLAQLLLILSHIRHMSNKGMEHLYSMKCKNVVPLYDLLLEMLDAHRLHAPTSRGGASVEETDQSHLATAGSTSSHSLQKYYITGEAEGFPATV
Kind of assay: Inhibition of fluoromone binding to recombinant human full length untagged ERalpha expressed in insect cells after 2 hrs by fluorescence polarization assay. On the technique in general: Polarisation of emitted light reports the rotation of a fluorescent probe.

For the next assay, the species on record is Homo sapiens. Kind of assay: Selectivity ratio of IC50 for recombinant human full length untagged ERbeta expressed in insect cells to IC50 for recombinant human full length untagged ERalpha expressed in insect cells.
The test system of assay [19] is Mus musculus. Kind of assay: Anti-osteoporotic activity in Balb/c mouse assessed as inhibition of OVX-mediated decrease in trabecular bone volume in femur at 25 to 100 mg/kg, ip administered for 4 weeks daily by microcomputed tomography. Format: functional, organism-based.
For assay [20], the system named is Mus musculus. The experiment in a line: Anti-osteoporotic activity in Balb/c mouse assessed as decrease in OVX-induced trabecular bone surface in femur at 25 to 100 mg/kg, ip administered for 4 weeks daily by microcomputed tomography. It is filed as functional, organism-based.
In assay [21] the test system is Mus musculus. The experiment in a line: Anti-osteoporotic activity in Balb/c mouse assessed as inhibition of OVX-induced NFATc1 mRNA expression level in bone marrow at 25 to 100 mg/kg, ip administered for 4 weeks daily by qRT-PCR method. It is filed as functional, organism-based.
Assay [22] deals with Mus musculus. The experiment in a line: Anti-osteoporotic activity in Balb/c mouse assessed as inhibition of OVX-induced cathepsin K mRNA expression level in bone marrow at 25 to 100 mg/kg, ip administered for 4 weeks daily by qRT-PCR method. It is filed as functional, organism-based.

Calcium/calmodulin-dependent protein kinase kinase 2 (Mus musculus), sequence (Q8C078 2-588 limits assumed): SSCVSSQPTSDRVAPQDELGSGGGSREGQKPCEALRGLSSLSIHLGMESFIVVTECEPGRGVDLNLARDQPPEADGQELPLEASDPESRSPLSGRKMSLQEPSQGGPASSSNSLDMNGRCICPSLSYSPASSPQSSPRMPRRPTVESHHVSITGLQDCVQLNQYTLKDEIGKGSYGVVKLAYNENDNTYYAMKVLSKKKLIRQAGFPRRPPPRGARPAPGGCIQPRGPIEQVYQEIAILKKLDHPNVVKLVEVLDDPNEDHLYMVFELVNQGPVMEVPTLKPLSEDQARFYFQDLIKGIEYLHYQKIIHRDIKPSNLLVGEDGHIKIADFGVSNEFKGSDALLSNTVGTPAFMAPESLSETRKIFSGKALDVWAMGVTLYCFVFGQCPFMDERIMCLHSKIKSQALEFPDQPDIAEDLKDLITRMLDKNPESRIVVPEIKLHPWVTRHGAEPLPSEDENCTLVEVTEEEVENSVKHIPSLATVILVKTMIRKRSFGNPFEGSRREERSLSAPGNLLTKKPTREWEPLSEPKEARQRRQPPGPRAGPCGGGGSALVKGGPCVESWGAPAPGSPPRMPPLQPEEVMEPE
5'-AMP-activated protein kinase catalytic subunit alpha-1 (Mus musculus), sequence (Q5EG47 whole entry): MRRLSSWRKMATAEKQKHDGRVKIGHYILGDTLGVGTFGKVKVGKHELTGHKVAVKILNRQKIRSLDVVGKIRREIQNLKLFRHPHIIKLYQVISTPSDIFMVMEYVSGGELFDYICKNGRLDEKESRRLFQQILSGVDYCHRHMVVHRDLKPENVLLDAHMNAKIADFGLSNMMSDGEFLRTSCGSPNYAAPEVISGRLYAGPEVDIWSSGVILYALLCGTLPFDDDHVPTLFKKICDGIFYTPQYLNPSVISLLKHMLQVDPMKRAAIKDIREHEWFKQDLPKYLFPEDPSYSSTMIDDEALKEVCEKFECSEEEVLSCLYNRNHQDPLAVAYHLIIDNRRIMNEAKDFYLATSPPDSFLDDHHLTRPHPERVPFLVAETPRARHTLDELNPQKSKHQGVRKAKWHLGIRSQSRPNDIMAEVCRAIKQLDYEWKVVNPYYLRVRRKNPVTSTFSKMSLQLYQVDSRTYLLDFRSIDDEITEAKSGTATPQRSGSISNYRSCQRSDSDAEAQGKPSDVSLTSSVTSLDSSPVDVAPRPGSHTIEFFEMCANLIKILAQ

Usually IC50 stands for the midpoint of a concentration-inhibition curve. On to `COc1cc(C2Oc3c(OC)cc(/C=C/CO)cc3C2CO)ccc1O` (centres undefined), for which the inhibition result (in the assay on RAW264.7 [1]; in the assay with RAW264.7 [4]; in [5]; with RAW264.7 [8]; in the assay on RAW264.7 [9]; in the assay with RAW264.7 [13]) was “Active” in each case. Also, the inhibition result in the assay with RAW264.7 [14], with RAW264.7 [17], with RAW264.7 [18], in the assay with Mus musculus [19], in the assay on Mus musculus [21] and with Mus musculus [22] was “Active” in each case. Further, the inhibition entry in the assay on RAW264.7 [2] and with RAW264.7 [3] was “Dose-dependent effect” throughout. Besides, the outcome (in assay [6]; with Mus musculus [20]) was Active. Further, the inhibition entry (in the assay with RAW264.7 [7]; in assay [10]; in the assay on RAW264.7 [11]; with RAW264.7 [12]; in the assay on RAW264.7 [15]; in the assay on RAW264.7 [16]) was “inactive” each time. Further, on Estrogen receptor, the IC50 is 61.9 nM. Further, the Ratio IC50 in the assay filed under Homo sapiens came to 4.63.
